Several values for one entry are separate records, joined by “and”; a condition that tells them apart may be missing. Equal values may be shown once. Entries after “also recorded” stand apart in the source; their conditions may differ. Read-outs that look alike come from different tables or passages of the source.
Key:
anaerobic bacteria = assay: Culture on Columbia medium with 5% sheep blood in ambient air; type: cell-based; settings: 1 mg/ml; ambient air or ambient air enriched with 5% of CO2
Experimental: These geloses inoculated with anaerobic bacteria were incubated either in ambient air or in ambient air enriched with 5% of CO2. […] These tests were conducted with a Columbia medium with 5% sheep blood having the following composition for 1 liter: […]

[1] = test system: Bacteroides thetaiotaomicron; type: cell-based
Clostridium butirycum = assay: Liquid hemoculture BD BACTEC Plus Aerobic/F, growth detection by CO2; type: cell-based; settings: Aerobic with UA 400 mg/L
Experimental: Hemocultures of strict anaerobic bacteria were made, inoculated to 10^5 cfu/mL on a culture medium: BD BACTEC™ Plus Aerobic/F. comprising 25 ml of enriched Trypticase soya broth, with resines (Reference: 442192) at 37° C. in an aerobic atmosphere with uric acid a 400 mg/L and without uric acid and in an anaerobic atmosphere without uric acid. The detection of the growth was ensured by detection of the production of CO2 with the BD BACTEC™ 9000 Series Instrumented Blood Culture Systems device.

[2] = test system: Helicobacter cinaedi strain DSMZ 5359; assay: Aerobic culture in Schaedler medium with uric acid; settings: without starch and glucose
Clostridium tertium = assay: Liquid hemoculture BD BACTEC Plus Aerobic/F, growth detection by CO2; type: cell-based; settings: Aerobic with UA 400 mg/L
Clostridium perfringens = type: cell-based; settings: Aerobic with UA 400 mg/L
[3] = test system: Bacteroides thetaiotaomicron; assay: Culture in Schaedler 0.2% agar tubes, height of growth; type: cell-based
[4] = single replicates, listed as UA

Structure (SMILES) | growth on Columbia medium with 5% sheep blood (anaerobic bacteria) | growth with uric acid alone compared with mixture of uric acid, ascorbic acid and glutathion ([1]; 0.3 g/L of uric acid alone) | culture result with production of hydrogen ([1]; aerobic conditions, 24 hour incubation, 37° C., uric acid alone 0.1, 0.2 or 0.3 g/L, or 0.1 g/L each of ascorbic acid, uric acid, glutathion) | growth with uric acid alone compared with mixture of uric acid, ascorbic acid and glutathion ([1]; uric acid alone at least 0.2 g/L) | Averages (growth time) (Clostridium butirycum) | Growth time (Clostridium butirycum; [4]) | time until bacterium established in culture [2] [h] | Averages (growth time) (Clostridium tertium) | Growth time (Clostridium tertium; [4]) | Averages (growth time) (Clostridium perfringens) | Growth time (Clostridium perfringens; [4]) | extent of culture in deoxygenated tube ([3]; 200 μg/ml) | extent of culture in deoxygenated tube ([3]; 500 μg/ml) | growth compared with ascorbic acid ([3]; 500 μg/ml, Schaedler 0.2% agar tubes)
O=C1O[C@H]([C@@H](O)CO)C(O)=C1O [ascorbic acid, reference compound] | Best growth | – | – | – | – | – | – | – | – | – | – | – | – | –
O=c1[nH]c(=O)c2[nH]c(=O)[nH]c2[nH]1 [uric acid, 7,9-dihydro-1H-purine-2,6,8(3H)-trione] | Best growth | greater | positive culture | equivalent | 6.667 | 8 h and 6 h (2×) | ≤ 24 | 4.333 | 4 h (2×) and 5 h | 6 | 7 h and 5 h and 6 h | practically occurs up to the surface | completely up to the surface; also recorded: growth up to the surface | identical

— patent publication US10626421B2, “Use of uric acid for culturing bacteria sensitive to oxygen tension” (FONDATION MEDITERRANEE INFECTION, priority 2014, dated 2020)
